In article PMC11035696, “Prospective de novo drug design with deep interactome learning” (Nature Communications, 2024):

Key:
[1] = Lipophilicity (LogD pH 7.4); format: physicochemical
Description: (§1) Compounds 1–3 were characterized in a hybrid reporter gene assay for their agoniztic effect on human nuclear receptors PPARα/γ/δ, RXRα, FXRα, RARα in HEK293T cells. Compound 1 was tested in an isothermal titration calorimetry (ITC) assay to measure direct binding affinity to the ligand-binding domain of PPARγ. ADME properties were measured in standardized assays at Roche.
(§2) SI11Absorption Distribution Metabolism and Excretion and Toxicity Data
(§3) To assess the drug-like characteristics of the newly designed PPAR modulators, a series of tests were conducted covering various aspects of absorption, distribution, metabolism, and excretion (ADME) properties. Specifically, these assessments included the parallel artificial membrane permeability assay (PAMPA) with permeation co- […]
(§4) efficients ([…]), LogD measurements, microsomal clearance, hepatocyte clearance, P-glycoprotein (Pgp) efflux ratio and binding and the unbound free fraction. […]
(§5) Table S14: Absorption distribution metabolism and excretion (ADME) properties of compounds 1 and 2. The […]
(§6) values for […], LogD, protein binding, P-glycoprotein (Pgp) efflux ratio and permeability, and hepato-cyte clearance are presented as the mean and standard deviation, with a sample size of N = 3, i.e., 3 technical replicates each. The values for microsomal clearance and CYP-inhibition represent single point measurements. […]

[2] = Parallel artificial membrane permeability assay (PAMPA); format: in vitro ADME; conditions: read-out: […] permeation coefficient
Description: as §1, §2, §3, §4, §5, §6

[3] = Microsomal clearance, human; format: in vitro ADME; conditions: human microsomes, single point measurement
Description: as §1, §2, §3
(§7) efficients ([…]), LogD measurements, microsomal clearance, hepatocyte clearance, P-glycoprotein (Pgp) efflux ratio and binding and the unbound free fraction. […] For seven selected CYP proteins (i.e., Cyp3A4, Cyp1A2, Cyp2B6, Cyp2C9, Cyp2D6, Cyp2C19, and Cyp2C8) the half maximal inhibitory con-centration (IC50) was determined. […]
(§8) Compounds 1 and 2 were validated for cytotoxicity on HEK293T cells. Figure S16 depicts the measured cyto-toxicity at two time points (i.e., 16h and 24h), 10 different concentrations (i.e., 0.05 - 20 µM), and 5 different

[4] = Microsomal clearance, mouse; format: in vitro ADME; conditions: mouse microsomes, single point measurement
Description: as §1, §2, §3, §7, §8

[5] = Microsomal clearance, rat; format: in vitro ADME; conditions: rat microsomes, single point measurement
Description: as §1, §2, §3, §7, §8

[6] = system: PPARγ; conditions: known PPARγ activity of ChEMBL ligands; ref ChEMBL database; cited from earlier work

SMILES	logD [1]	Papp [2]	Microsomal clearance, human [3]	Microsomal clearance, mouse [4]	Microsomal clearance, rat [5]	pEC50 [6]
CO[C@@H](Cc1ccc(OCCc2nc(-c3ccccc3)oc2C)c2ccsc12)C(=O)O [aleglitazar]	1.4	6 ×10⁻⁶ cm/s	≥ 10 µL·min−1·mg−1 protein	≥ 10 µL·min−1·mg−1 protein	≥ 10 µL·min−1·mg−1 protein	–
CCCc1cc(C(F)(F)F)ccc1OCCCOc1ccc(OCC(=O)O)c(C)c1 [ChEMBL213355]	–	–	–	–	–	6.82
